Tested on: cancer-bearing mice (WHT/Ht albino mice), squamous-cell carcinoma and fibrosarcoma
Assay: Radiation intensity of each organ after intravenous injection to cancer-bearing mice
Type: in vivo
Procedure: Compound 4 of Example 4 was intravenously injected to cancer-bearing mice (WHT/Ht albino mice) (3 mice per group). Systemic frozen sections of each mouse were prepared 10, 30, 60, 120, and 150 minutes after intravenous injection, and the radiation intensity of each organ was measured. Squamous-cell carcinoma and fibrosarcoma were employed as cancer sources. When the sections was prepared, blood was collected separately, and the ratio of radiation intensity in each organ to that in blood was obtained.

[1] = 10 min. after intravenous injection
[2] = 30 min. after intravenous injection
[3] = 60 min. after intravenous injection
[4] = 120 min. after intravenous injection
[5] = 150 min. after intravenous injection

For O=[N+]([O-])c1nccn1COC(CO)C[18F] (stereo not shown) [Compound 4, 1-[2-fluoro(^18F)-1-(hydroxymethyl)ethoxy]methyl-2-nitroimidazole], the “radiation intensity, Blood” value [1] was 2.222, the “radiation intensity, Bone” value [1] was 1.157 and the “radiation intensity, Brain” value [1] was 1.168. For the same compound, the “radiation intensity, Fibrosarcoma” value [1] was 1.584, the “radiation intensity, Heart” value [1] was 1.721 and the “radiation intensity, Intestine” value [1] was 1.697. For the same compound, the “radiation intensity, Kidney” value [1] was 7.935, the “radiation intensity, Liver” value [1] was 10.300 and the “radiation intensity, Lung” value [1] was 2.151. The “radiation intensity, Muscle” value [1] was 1.576, the “radiation intensity, Squamous carcinoma” value [1] was 2.192 and the “radiation intensity, Testis” value [1] was 0.861. For the same compound, the “ratio of radiation intensity, Fibrosarcoma/blood” value (“ratio … Fibrosarcoma/blood” below) [1] was 0.697, the “ratio of radiation intensity, Squamous carcinoma/blood” value (“ratio … Squamous carcinoma/blood” below) [1] was 0.893 and the “radiation intensity, Blood” value [2] was 1.068. The “radiation intensity, Bone” value [2] was 0.617, the “radiation intensity, Brain” value [2] was 0.815 and the “radiation intensity, Fibrosarcoma” value [2] was 1.319. For the same compound, the “radiation intensity, Heart” value [2] was 0.929, the “radiation intensity, Intestine” value [2] was 0.767 and the “radiation intensity, Kidney” value [2] was 5.667. The “radiation intensity, Liver” value [2] was 5.018, the “radiation intensity, Lung” value [2] was 1.347 and the “radiation intensity, Muscle” value [2] was 0.742. For the same compound, the “radiation intensity, Squamous carcinoma” value [2] was 1.237, the “radiation intensity, Testis” value [2] was 0.852 and the “ratio … Fibrosarcoma/blood” value [2] was 1.234. For the same compound, the “ratio … Squamous carcinoma/blood” value [2] was 1.012, the “radiation intensity, Blood” value [3] was 0.379 and the “radiation intensity, Bone” value [3] was 0.244. The “radiation intensity, Brain” value [3] was 0.308, the “radiation intensity, Fibrosarcoma” value [3] was 0.619 and the “radiation intensity, Heart” value [3] was 0.378. The “radiation intensity, Intestine” value [3] was 0.533, the “radiation intensity, Kidney” value [3] was 1.856 and the “radiation intensity, Liver” value [3] was 1.692. The “radiation intensity, Lung” value [3] was 0.596, the “radiation intensity, Muscle” value [3] was 0.314 and the “radiation intensity, Squamous carcinoma” value [3] was 0.466. For the same compound, the “radiation intensity, Testis” value [3] was 0.466, the “ratio … Fibrosarcoma/blood” value [3] was 1.634 and the “ratio … Squamous carcinoma/blood” value [3] was 1.384. For the same compound, the “radiation intensity, Blood” value [4] was 0.117, the “radiation intensity, Bone” value [4] was 0.253 and the “radiation intensity, Brain” value [4] was 0.116. For the same compound, the “radiation intensity, Fibrosarcoma” value [4] was 0.421, the “radiation intensity, Heart” value [4] was 0.216 and the “radiation intensity, Intestine” value [4] was 0.56. The “radiation intensity, Kidney” value [4] was 0.699, the “radiation intensity, Liver” value [4] was 0.730 and the “radiation intensity, Lung” value [4] was 0.353. The “radiation intensity, Muscle” value [4] was 0.139, the “radiation intensity, Squamous carcinoma” value [4] was 0.133 and the “radiation intensity, Testis” value [4] was 0.412. For the same compound, the “ratio … Fibrosarcoma/blood” value [4] was 3.601, the “ratio … Squamous carcinoma/blood” value [4] was 2.904 and the “radiation intensity, Blood” value [5] was 0.096. For the same compound, the “radiation intensity, Bone” value [5] was 0.218, the “radiation intensity, Brain” value [5] was 0.126 and the “radiation intensity, Fibrosarcoma” value [5] was 0.351. For the same compound, the “radiation intensity, Heart” value [5] was 0.186, the “radiation intensity, Intestine” value [5] was 0.488 and the “radiation intensity, Kidney” value [5] was 0.511. The “radiation intensity, Liver” value [5] was 0.800, the “radiation intensity, Lung” value [5] was 0.331 and the “radiation intensity, Muscle” value [5] was 0.159. The “radiation intensity, Squamous carcinoma” value [5] was 0.101, the “radiation intensity, Testis” value [5] was 0.139 and the “ratio … Fibrosarcoma/blood” value [5] was 3.675. The “ratio … Squamous carcinoma/blood” value [5] was 2.357.

— US6743925B1, “Nitroimidazole derivative and diagnostic imaging agent containing the same” (Pola Chemical Industries, Inc., priority 1999, dated 2004)
